{"source": "paper PMC12910647", "about": "“Tumor-Targeted Delivery of an EGFR Inhibitor Prodrug via Site-Specific Albumin Conjugation” (Journal of Medicinal Chemistry, 2026)", "origin": "cited, not measured here", "design": "method as in not given", "conditions": "in mice, reported value; ref not given"}
{"compound": "C=CC(=O)Nc1cc(Nc2nccc(-c3cn(C)c4ccccc34)n2)c(OC)cc1N(C)CCN(C)C", "note": "[osimertinib]", "values": [{"measurement": "maximum tolerated dose (MTD)", "value": 25, "unit": "mg/kg"}]}
